Source: paper PMC3283556, “The Activities of Current Antimalarial Drugs on the Life Cycle Stages of Plasmodium: A Comparative Study with Human and Rodent Parasites” (PLoS Medicine, 2012)
Read-outs that look alike come from different tables or passages of the source.

Experiments:
[1] = test system: P. falciparum asexual blood stage parasites (strains NF54, D6, K1, W2, 7G8, TM90C2A, V1/S); test: [3H]-hypoxanthine incorporation growth inhibition assay, asexual blood stage; type: cell-based, Plasmodium falciparum; conditions: for IC50: Plasmodium falciparum; for resistance / retention of potency against resistant strains: drug-resistant strains; for fold reduction in potency: against all drug-resistant strains containing the mutated chloroquine transporter (PfCRT)
Procedure: In vitro antimalarial activity was measured using the [^3H]-hypoxanthine incorporation assay with various strains of P. falciparum obtained from MR4. Results were expressed as the concentration resulting in 50% inhibition (IC50).
The half-maximal inhibitory concentrations (IC50) were determined for each molecule (Table S2).
Figure 2 The potencies of selected antimalarials against asexual blood stages. Main classes of antimalarials were tested against the blood stage of seven Plasmodium falciparum strains in the [^3H]hypoxanthine incorporation assay as described in Vennerstrom et al.. The strains tested here (obtained from MR4) were two drug-sensitive strains NF54 and D6 and five drug-resistant strains: K1, resistant to chloroquine (CQ) and pyrimethamine (PYR), origin Thailand, carries mutations in genes pfmdr1, pfcrt, pfdhfr, pfdhps; W2, resistant to CQ, PYR, quinine, cycloguanil, and sulfadoxine, origin Vietnam; 7G8, resistant to CQ and PYR, origin Brazil; TM90C2A, resistant to CQ, PYR, and MFQ, origin Thailand; and V1/S, resistant to CQ, PYR and cycloguanil, origin Vietnam. Results are expressed as the concentration resulting in 50% growth inhibition (IC50).Values are means of ≥3 independent experiments. (A) Endoperoxides. (B) 4-AQs. (C) 8-AQs and amino alcohols. (D) Antifolates, antibiotics, and others.

[2] = test system: P. yoelii liver stage parasites (liver schizonts); test: P. yoelii liver stage assay in HepG2 cells (EEF immunofluorescence); type: cell-based, Plasmodium yoelii; conditions: for IC50: Plasmodium yoelii; for potency range against liver stages: dose response
Procedure: (§1) 7.5×10^3 HepG2 cells in 50 µl of medium (1.5×10^5 cells/ml) were seeded in 384 well plates (Aurora 384 IQ-EB Black/Clear Plates) 20–26 h prior to the actual infection. 2 h prior to infection, 50 nl of compound in DMSO (0.1% final DMSO concentration per well) were transferred with a PinTool (GNF Systems) into the assay plates (10 µM final concentration). P. yoelii sporozoites were freshly dissected from infected A. stephensi mosquito salivary glands and filtered twice with a 40-µm strainer. The HepG2 cells were then infected with 8×10^3 sporozoites per well. After infection and 1-h incubation at 37°C, the cultures were washed, new media and compound added, and further incubated with 5-fold increased concentration of penicillin/streptomycin for 48 h at 37°C before exoerythrocytic forms (EEFs) quantification of infected cells by immunofluorescence.
After washing with 1×PBS and fixation of the cells with 4% paraformaldehyde solution (EMS), membranes were permeabilised with 0.5% Triton-X-100 (Thermo Fisher Scientific) and EEFs were stained using a mouse polyclonal serum raised against the Plasmodium heat shock protein 70 (HSP70), an Alexa goat antimouse IgG, Fca-specific DyLight 649 secondary antibody (Invitrogen), and the Hoechst 33342 nucleic acid dye (Invitrogen). Stained EEFs were then quantified using the Opera Confocal High Content Screening system (PerkinElmer). Images were collected using a 20× magnification at a binning of 2 using a 365 Xeon arc lamp illumination to detect the nuclei and 635-nm laser line to excite DyLight649.
(§2) High-content imaging of infected HepG2-CD81 cells was performed as described in Meister et al.. Wells were analysed using a custom Acapella (PerkinElmer) script parameterized for this assay. In brief, images from fields inside the well were first discarded as out of focus when the intensity in the nuclear area was too low. Then hepatic cells were counted by detecting the nuclei labelled with Hoechst 33342 and parasites were segmented using the HSP70 immuno-labelling. Morphology-based (e.g., area, roundness) and intensity-based features were calculated for each object detected including the hepatocyte nuclei and the parasites. Parasitemia was set as the ratio between parasite number (Alexa fluor positive) and the hepatocyte nuclei count, determined at the same time.
(§3) When an infected mosquito bites a host, ∼100 sporozoites may be injected into the dermis from where they rapidly invade liver cells,[33]. This infective step represents the second bottleneck during transmission and therefore another potentially vulnerable point for intervention. In the absence of a practical liver stage assay measuring the formation of P. falciparum/P. vivax liver schizonts, an equivalent assay was developed in P. yoelii and used to assess the activity of the collection of molecules against this specific stage. Specifically, P. yoelii sporozoites were dissected from the salivary glands of infected mosquitoes and were allowed to invade human hepatocarcinoma cells expressing the CD81 protein. The development of the liver schizonts was monitored by immunofluorescence staining using an HSP70 antibody specific to the parasite (Figure 4A).
Figure 4 Validation and results of anti-infectives tested against P. yoelii liver stage parasites. (A) Opera-generated images from a time point experiment using a 20× objective lens. P. yoelii parasites (red) were visualized using a mouse polyclonal HSP70 antibody, and the HepG2 cells (green) were stained with Hoechst 33342 nucleic acid dye. […] (B) A dose response plot with atovaquone from data generated from the Opera imaging system. The median areas of compound-treated parasites were compared to untreated DMSO controls to determine the degree of inhibition.

HepG2 cells = test: Growth retardation of HepG2 cells; conditions: for IC50: Homo sapiens, HepG2, read-out: IC50 HepG2
Procedure: as §1, §2, §3

[3] = test system: P. falciparum mature gametocytes / male gamete exflagellation; test: P. falciparum exflagellation assay; type: cell-based, Plasmodium falciparum; conditions: for inhibition at 10 µM: Plasmodium falciparum
Procedure: After 24 h, exflagellation was triggered by a temperature decrease to ∼21°C and observed 20 min later under the microscope. Highly motile exflagellation centres were recorded for ∼50–150 adjacent fields of view and reported per 10,000 RBCs.
(A) Assays examined exflagellation (P. falciparum), ookinete formation (P. berghei), or oocyst formation (P. falciparum). All antimalarials were screened at 10 µM. (B) The biological content of the in vitro P. berghei ookinete assay spans gamete formation, fertilization, zygote development, and ookinete formation. […] (D) The in vitro P. falciparum exflagellation assay exposes mature gametocytes to antimalarials for 24 h before triggering exflagellation. […] All experiments in triplicate. (E) The in vivo P. falciparum oocyst assay differs from the P. berghei oocyst assay in that mature gametocytes were exposed to the antimalarials in culture for 24 h before feeding to mosquitoes.

[4] = HepG2, development of P. yoelii liver schizonts following infection of HepG2 cells, read-out: IC50 Parasite
[5] = HepG2, dose response, read-out: IC50 liver stage
[6] = HepG2, box linked to liver schizont, read-out: IC50 (liver schizont, Figure 5)
[7] = HepG2, dose response, median parasite area (Opera), read-out: IC50 liver stage
[8] = asexual blood stage, all parasite lines, read-out: IC50
[9] = 10 µM, 24 h exposure of mature gametocytes
[10] = 10 μM, box linked to gametocytes/exflagellation, read-out: Inhibition at 10 μM (gametocytes/exflagellation, Figure 5)
[11] = asexual blood stage, both drug-resistant and -sensitive strains, read-out: IC50
[12] = read-out: inhibition of exflagellation, 10 µM, 24 h exposure of mature gametocytes
[13] = asexual blood stage, all parasite lines

Compound: OC(c1cc(C(F)(F)F)nc2c(C(F)(F)F)cccc12)C1CCCCN1 (racemic) [racemic mefloquine, mefloquine]
- IC50 [1]: < 10 nM
- IC50 [2, 4]: 1690 ± 1450 nM
- IC50 (HepG2 cells): 1730 ± 600 nM
- CI (cytotoxicity index) (HepG2 cells; human, 48 h): 1.02

Compound: CCN(CC)CCCNc1ccnc2cc(Cl)ccc12 [AQ-13]
- IC50 [2, 5]: < 3000 nM

Compound: CCc1nc(N)nc(N)c1OCCCOc1ccccc1CCC(=O)O [P218]
- IC50 [2, 6]: < 1000 nM
- IC50 [2, 7]: < 10 nM

Compound: N=C(N)c1ccc(OCCCCCOc2ccc(C(=N)N)cc2)cc1 [Pentamidine]
- IC50 [2, 4]: 2460 ± 570 nM
- IC50 (HepG2 cells): 3750 ± 1100 nM
- CI (cytotoxicity index) (HepG2 cells; human, 48 h): 1.52

Compound: CCN(CC)Cc1cc(Nc2ccnc3cc(Cl)ccc23)ccc1O [amodiaquine]
- IC50 [1, 8]: 2 to 10 nM
- resistance / retention of potency against resistant strains [1]: do not lose potency when tested against chloroquine resistant strains
- effect on exflagellation (words) [3, 9]: inhibited P. falciparum exflagellation
- inhibition at 10 µM [3, 10]: > 60%
- IC50 [2, 5]: < 3000 nM

Compound: C[C@@H]1CC[C@H]2[C@@H](C)C(=O)O[C@@H]3O[C@@]4(C)CC[C@@H]1[C@]32OO4 [artemisinin]
- IC50 [1, 8]: 1 to 15 nM

Compound: C[C@H]1[C@H](N2CCS(=O)(=O)CC2)O[C@@H]2O[C@@]3(C)CC[C@H]4[C@H](C)CC[C@@H]1[C@@]24OO3 [artemisone]
- IC50 [2, 6]: < 1000 nM
- IC50 [2, 7]: < 100 nM

Compound: C[C@H]1[C@H](OC(=O)CCC(=O)O)O[C@@H]2O[C@@]3(C)CC[C@H]4[C@H](C)CC[C@@H]1[C@@]24OO3 [artesunate]
- IC50 [1, 8]: 1 to 15 nM
- IC50 [2, 6]: < 1000 nM

Compound: CC[C@H]1OC(=O)[C@H](C)[C@@H](O[C@H]2C[C@@](C)(OC)[C@@H](O)[C@H](C)O2)[C@H](C)[C@@H](O[C@@H]2O[C@H](C)C[C@H](N(C)C)[C@H]2O)[C@](C)(O)C[C@@H](C)CN(C)[C@H](C)[C@@H](O)[C@]1(C)O [azithromycin]
- IC50 [1, 11]: 1000 to 10000 nM

Compound: COc1cc(NC(C)CCCNC(C)=C2CCOC2=O)c2ncccc2c1 (stereo not drawn) [bulaquine]
- IC50 [1, 11]: 500 to 2500 nM

Compound: CCN(CC)CCCC(C)Nc1ccnc2cc(Cl)ccc12 (stereo not drawn) [chloroquine]
- fold reduction in potency [1]: 6–100 fold
- enhancement (stimulation) of exflagellation [3, 9]: at least 20%

Compound: CC1(C)N=C(N)N=C(N)N1c1ccc(Cl)cc1 [cycloguanil]
- IC50 ([1]; Erythrocyte, read-out: IC50 (erythrocyte schizont, Figure 5), box linked to blood stage schizont): < 4 nM
- fold loss of potency ([1]; between sensitive and resistant strains): ≥ 100 fold
- IC50 [2, 6]: < 1000 nM
- IC50 [2, 7]: < 10 nM

Compound: CC(=O)N(O)CCCCCNC(=O)CCC(=O)N(O)CCCCCNC(=O)CCC(=O)N(O)CCCCCN [deferoxamine]
- IC50 [2, 6]: < 1000 nM
- potency range against liver stages [2]: submicromolar potencies

Compound: C[C@]12CC[C@H](O)CC1=CC[C@@H]1[C@@H]2CC[C@]2(C)C(=O)CC[C@@H]12 [dehydroepiandrosterone]
- IC50 ([1]; asexual blood stage, both drug-resistant and -sensitive strains): 1000 to 10000 nM

Compound: CCN(CC)CCCC(C)Nc1cc(OC)cc2cccnc12 (stereo not drawn) [diethylprimaquine]
- IC50 [1, 11]: 500 to 2500 nM
- inhibition at 10 µM [3, 12]: > 70%

Compound: CCN(CCO)CCCC(C)Nc1ccnc2cc(Cl)ccc12 (stereo not drawn) [hydroxychloroquine]
- fold reduction in potency [1]: 6–100 fold
- enhancement (stimulation) of exflagellation [3, 9]: at least 20%

Compound: CN(C)c1ccc2nc3ccc(=[N+](C)C)cc-3sc2c1 [methylene blue]
- IC50 [2, 6]: < 1000 nM
- IC50 [2, 7]: < 100 nM

Compound: CC(C)(C)NCc1cc(Nc2ccnc3cc(Cl)ccc23)c2c(c1O)CCCC2 [naphthoquine]
- IC50 [1, 13]: 2 to 10 nM
- resistance / retention of potency against resistant strains [1]: do not lose potency when tested against chloroquine resistant strains
- IC50 [2, 6]: < 1000 nM
- IC50 [2, 5]: < 3000 nM

Compound: Clc1ccc2c(N3CCN(CCCN4CCN(c5ccnc6cc(Cl)ccc56)CC4)CC3)ccnc2c1 [piperaquine]
- IC50 [1, 13]: 2 to 10 nM
- resistance / retention of potency against resistant strains [1]: do not lose potency when tested against chloroquine resistant strains

Compound: COc1cc(NC(C)CCCN)c2ncccc2c1 (stereo not drawn) [primaquine]
- IC50 [1]: 500 to 2500 nM
- enhancement (stimulation) of exflagellation [3, 9]: 15%

Compound: [H]/N=C(\N/C(=N/[H])Nc1ccc(Cl)cc1)NC(C)C [proguanil]
- IC50 [1, 11]: 1000 to 10000 nM
- IC50 [2, 4]: 11800 ± 5190 nM
- IC50 (HepG2 cells): 15400 ± 3090 nM
- CI (cytotoxicity index) (HepG2 cells; IC50 HepG2 compared to IC50 parasite): 1.31

Compound: C=C[C@H]1C[N@@]2CC[C@H]1C[C@@H]2[C@@H](O)c1ccnc2ccc(OC)cc12 [quinidine]
- IC50 [2, 6]: < 1000 nM
- potency range against liver stages [2]: submicromolar potencies

Compound: Cc1cc2nc3c(=O)[nH]c(=O)nc-3n(C[C@H](O)[C@H](O)[C@H](O)CO)c2cc1C [riboflavin]
- IC50 [1, 11]: 1000 to 10000 nM

Compound: Cc1cc(NS(=O)(=O)c2ccc(N)cc2)no1 [sulfamethoxazole]
- inhibition at 10 µM [3, 12]: > 80%
- inhibition at 10 µM [3, 10]: > 60%

Compound: CC(C)(C)NCc1ccc(Nc2ccnc3cc(Cl)ccc23)cc1O [tert-butyl-isoquine]
- IC50 [1, 13]: 2 to 10 nM
- resistance / retention of potency against resistant strains [1]: do not lose potency when tested against chloroquine resistant strains
- effect on exflagellation (words) [3, 9]: inhibited P. falciparum exflagellation
- effect on exflagellation (words) ([3]; 10 µM, 24 h exposure of mature gametocytes, listed as tert-butyl isoquine): inhibited exflagellation totally
- inhibition at 10 µM [3, 10]: > 60%

Compound: COc1cc(Cc2cnc(N)nc2N)cc(OC)c1OC [trimethoprim]
- IC50 [1, 11]: 1000 to 10000 nM
